Assay results published in US7202049B2, “Mitogen-activated protein kinase p38-2 and methods of use therefor” (Signal Pharmaceuticals, Inc., priority 1996, dated 2007).

Tested on: p38-2
Assay: Immune complex kinase assay of HA-tagged p38-2 from transiently transfected COS cells, GST-ATF2 substrate
Type: cell-based, human
Description: An expression vector encoding epitope-tagged p38-2 (3×HA-p38-2-SRα3) was constructed by adding sequence encoding three copies of a 10 amino acid hemagglutinin (HA) epitope to the N-terminus of p38-2 and ligating the resulting cDNA into the expression vector SRα3. To investigate the pattern of regulation of p38-2, COS cells were transiently transfected with HA-p38-2-SRα3 (as described above) by the DEAE-Dextran method (Kawai and Nishizawa, Mol. Cell. Biol. 4:1172–1174, 1984).
Following treatment, cell lysates were prepared by solubilization in lysis buffer as described (Derijard et al., Cell 76:1025–1037, 1994), and protein concentration of lysates was determined by Bradford assay (Bradford, Ann Biochem. 72:248–254, 1976). Cell lysates were used in an immune complex kinase assay with GST-ATF2 substrate, prepared as previously described (Gupta et al., Science 267:389–39, 1995). The assay was generally performed as described previously (Derijard et al., Cell 76:1025–1037, 1994; Lin et al., Science 268:286–290, 1995) with minor modifications. The concentration of [γ-^32P]ATP was 50 nM, and 30 μg cell lysate was immunoprecipitated for 2 hours with the anti-HA antibody 12CA5 (Boehringer-Mannheim Corp., Indianapolis, Ind.) and then incubated with 1 μg of recombinant substrate.

| Compound | induction of p38-2 (kinase activity, ATF2 phosphorylation) (COS cells transfected with HA-p38-2, anisomycin 50 ng/mL for 45 minutes) | increase in p38-2 activity (ATF2 phosphorylation) |
| --- | --- | --- |
| COc1ccc(C[C@H]2NC[C@H](O)[C@H]2OC(C)=O)cc1 [anisomycin] | strong induction | – |
| [Cl-].[Na+] [NaCl] | – | No increase |
